According to paper PMC8617627, “Novel DYRK1A Inhibitor Rescues Learning and Memory Deficits in a Mouse Model of Down Syndrome” (Pharmaceuticals, 2021):

What was measured:
[1] = Rat IV pharmacokinetics; assay type: in vivo; conditions: after IV bolus 1 mg/kg
[2] = Rat IV pharmacokinetics; assay type: in vivo; conditions: plasma
Protocol: For determining plasma pharmacokinetics blood samples (via cardiac puncture into heparinized tubes and centrifuged for plasma at 4 °C) were serially sampled via jugular vein at […], 0.5, 5, 15, and 30 min, 1, 2, 4, 8, and 24 h timepoints post dosing. Three animals per timepoint were sampled. All samples were stored at −20 °C pending analysis. Bioanalysis was carried out by UHPLC-TOF mass spectrometry using electrospray ionization against matrix matched calibration lines. The pharmacokinetic parameters were subsequently calculated by noncompartmental methods. Samples are prepared by protein precipitation and/or dilution: tissues are homogenized first. Analysis is carried out using a generic internal standard, with matrix-matched calibration standards bracketing the study samples. Samples were analyzed by high resolution accurate mass UHPLC-TOF MS. […] The mass spectrometer was operated in full scan mode, with positive ion electrospray data acquired over the m/z mass range 100–1000.

[3] = Mouse IV pharmacokinetics (plasma and brain); assay type: in vivo; conditions: for half-life: read-out: t½ (converted)
Protocol: In the mouse model, the PK-parameters were also determined in the brain samples. […] Samples are prepared by protein precipitation and/or dilution: tissues are homogenized first. Analysis is carried out using a generic internal standard, with matrix-matched calibration standards bracketing the study samples.
(§1) Samples were analyzed by high resolution accurate mass UHPLC-TOF MS. […] The mass spectrometer was operated in full scan mode, with positive ion electrospray data acquired over the m/z mass range 100–1000.

[4] = test system: Ts65Dn mice; experiment: Contextual fear conditioning; assay type: in vivo
Protocol: The capacity for contextual memory of 10- to 16-week old Ts65Dn mice was compared with age-matched euploid control mice using a fear conditioning protocol. Briefly, the mice were exposed for 3 min to the context test chamber serving as a conditioning stimulus, followed by an electric shock for 2 s representing the unconditioned stimulus. […] Freezing, defined as a species-specific defensive reaction characterized by lack of movement besides respiration and heartbeat, associated with crouching posture, was used as a measure of learning, and assessed for 180 s, every 9 s by two trained observers […] of the mouse genotypes and the pharmacological agent being used.
The capacity for contextual memory of 10- to 16-week-old Ts65Dn mice was compared with age-matched euploid control mice using the same fear conditioning protocol used in a previous work with the drug memantine. Briefly, the mice were exposed for 3 min to the context (Med Associates, St. Albans, VT, Modular Mouse Test Chamber) serving as a conditioning stimulus, followed by an electric shock (2 s, 0.7 mA, constant electric current) representing the unconditioned stimulus. […] Freezing, defined as a species-specific defensive reaction characterized by lack of movement besides respiration and heartbeat, associated with crouching posture, was used as a measure of learning, and assessed for 180 s, every 9 s by two trained observers […] of the mouse genotypes and the pharmacological agent being used. The mean number of observations indicating freezing behavior was expressed as percentage of freezing in relation to the total number of observations. All experiments were video-recorded, for automated video-analysis, confirmation of the trained-observer scores, and archival purposes.
In addition, the mice continued to consume these same food preparations during the two days necessary to perform the behavioral testing.

[5] = Mouse microsome stability assay; assay type: in vitro ADME; conditions: microsomes
[6] = Mouse PO pharmacokinetics (plasma and brain); assay type: in vivo; conditions: for Tmax: po
Protocol: For determining plasma and brain pharmacokinetics blood samples (via cardiac puncture into heparinized tubes and centrifuged for plasma at 4 °C) and brains were terminally sampled at 0.25, 0.5, 1, 2, 3, 4, 6, and 8 h timepoints post dosing. Three animals per timepoint were sampled. The three animals designated for the 8 h timepoint were housed in a metabolism cage post-dosing for collection of urine. All samples were stored at −20 °C pending analysis. Bioanalysis was carried out by UHPLC-TOF mass spectrometry using electrospray ionization against matrix matched calibration lines.
The pharmacokinetic parameters were subsequently calculated by noncompartmental methods.
Samples are prepared by protein precipitation and/or dilution: tissues are homogenized first. Analysis is carried out using a generic internal standard, with matrix-matched calibration standards bracketing the study samples.
as §1

[7] = target: DYRK1A (Homo sapiens, UniProt Q13627); experiment: Kinase profile (33P ATP filter binding); assay type: biochemical; conditions: read-out: Remaining protein kinase activity
[8] = target: CLK2 (Homo sapiens, UniProt P49760); experiment: Kinase profile (33P ATP filter binding); assay type: biochemical; conditions: read-out: Remaining protein kinase activity
Chain of CLK2 (P49760 whole entry): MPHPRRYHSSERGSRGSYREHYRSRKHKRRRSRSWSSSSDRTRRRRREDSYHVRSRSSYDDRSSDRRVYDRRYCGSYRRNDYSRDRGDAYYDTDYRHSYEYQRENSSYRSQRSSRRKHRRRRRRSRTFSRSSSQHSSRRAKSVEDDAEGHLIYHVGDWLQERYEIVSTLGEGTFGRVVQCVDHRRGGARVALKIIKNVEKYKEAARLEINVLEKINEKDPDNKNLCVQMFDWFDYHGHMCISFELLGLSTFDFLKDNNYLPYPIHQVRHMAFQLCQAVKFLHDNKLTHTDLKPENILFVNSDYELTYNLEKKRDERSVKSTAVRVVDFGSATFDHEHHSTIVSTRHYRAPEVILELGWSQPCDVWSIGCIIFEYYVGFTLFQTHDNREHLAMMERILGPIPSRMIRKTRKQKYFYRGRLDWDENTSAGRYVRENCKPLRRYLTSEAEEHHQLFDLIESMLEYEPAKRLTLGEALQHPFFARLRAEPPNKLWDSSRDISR

[9] = target: FGF-R1 (Homo sapiens, UniProt P11362); experiment: Kinase profile (33P ATP filter binding); assay type: biochemical; conditions: read-out: Remaining protein kinase activity
Chain of FGF-R1 (P11362 22-822): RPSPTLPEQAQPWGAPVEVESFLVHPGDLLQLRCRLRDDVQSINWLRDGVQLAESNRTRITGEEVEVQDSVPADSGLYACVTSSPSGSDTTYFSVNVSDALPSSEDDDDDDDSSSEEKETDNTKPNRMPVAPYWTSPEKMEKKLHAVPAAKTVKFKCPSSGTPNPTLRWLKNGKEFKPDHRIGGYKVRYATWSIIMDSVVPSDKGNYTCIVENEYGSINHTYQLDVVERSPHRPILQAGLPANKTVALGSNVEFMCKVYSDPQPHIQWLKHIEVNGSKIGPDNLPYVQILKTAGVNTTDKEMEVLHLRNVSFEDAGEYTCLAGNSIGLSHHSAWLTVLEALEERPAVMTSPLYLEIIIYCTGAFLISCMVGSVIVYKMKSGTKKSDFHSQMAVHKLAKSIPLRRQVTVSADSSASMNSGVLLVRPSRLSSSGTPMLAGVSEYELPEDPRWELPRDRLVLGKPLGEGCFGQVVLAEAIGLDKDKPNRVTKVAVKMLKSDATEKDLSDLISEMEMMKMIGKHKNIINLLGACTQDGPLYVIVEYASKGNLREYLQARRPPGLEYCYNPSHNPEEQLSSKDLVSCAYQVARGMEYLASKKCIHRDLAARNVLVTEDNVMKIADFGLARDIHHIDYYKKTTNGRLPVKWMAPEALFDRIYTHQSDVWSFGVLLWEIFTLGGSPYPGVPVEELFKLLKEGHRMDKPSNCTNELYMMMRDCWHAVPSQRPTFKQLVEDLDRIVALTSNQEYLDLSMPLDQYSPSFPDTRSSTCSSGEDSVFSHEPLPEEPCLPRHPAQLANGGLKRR

[10] = target: DYRK2 (Homo sapiens, UniProt Q92630); experiment: Kinase profile (33P ATP filter binding); assay type: biochemical; conditions: read-out: Remaining protein kinase activity
Chain of DYRK2 (Q92630 whole entry): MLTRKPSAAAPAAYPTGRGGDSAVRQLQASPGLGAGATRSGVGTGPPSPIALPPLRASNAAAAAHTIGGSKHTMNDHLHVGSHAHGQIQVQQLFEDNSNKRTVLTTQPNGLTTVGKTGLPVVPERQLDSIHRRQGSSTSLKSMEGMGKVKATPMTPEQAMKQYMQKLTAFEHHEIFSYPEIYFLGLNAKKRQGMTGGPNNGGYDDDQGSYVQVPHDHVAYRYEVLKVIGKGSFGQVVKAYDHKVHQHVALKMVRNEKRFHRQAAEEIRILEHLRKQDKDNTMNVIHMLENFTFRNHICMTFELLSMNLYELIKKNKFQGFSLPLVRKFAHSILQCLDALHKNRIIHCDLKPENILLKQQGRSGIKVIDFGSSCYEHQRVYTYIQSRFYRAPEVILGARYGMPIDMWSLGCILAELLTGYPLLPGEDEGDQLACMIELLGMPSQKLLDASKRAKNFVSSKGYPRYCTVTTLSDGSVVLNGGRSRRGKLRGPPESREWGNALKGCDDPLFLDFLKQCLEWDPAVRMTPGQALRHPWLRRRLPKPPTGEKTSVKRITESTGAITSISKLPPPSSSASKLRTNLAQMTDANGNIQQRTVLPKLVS

[11] = target: GSK3b (Homo sapiens, UniProt P49841); experiment: Kinase profile (33P ATP filter binding); assay type: biochemical; conditions: read-out: Remaining protein kinase activity
Chain of GSK3b (P49841 whole entry): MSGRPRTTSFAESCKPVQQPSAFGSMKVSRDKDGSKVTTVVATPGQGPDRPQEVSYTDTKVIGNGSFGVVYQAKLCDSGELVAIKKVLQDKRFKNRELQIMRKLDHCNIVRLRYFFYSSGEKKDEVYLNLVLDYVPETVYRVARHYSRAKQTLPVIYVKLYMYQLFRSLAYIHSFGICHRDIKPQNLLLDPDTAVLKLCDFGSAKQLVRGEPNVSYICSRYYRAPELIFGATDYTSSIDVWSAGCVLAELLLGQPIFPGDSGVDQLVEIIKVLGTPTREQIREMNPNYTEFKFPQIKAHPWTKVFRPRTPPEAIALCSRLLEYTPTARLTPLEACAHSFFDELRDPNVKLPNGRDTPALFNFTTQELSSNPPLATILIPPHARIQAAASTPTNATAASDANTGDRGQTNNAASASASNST

[12] = target: DYRK3 (Homo sapiens, UniProt O43781); experiment: Kinase profile (33P ATP filter binding); assay type: biochemical; conditions: read-out: Remaining protein kinase activity
Chain of DYRK3 (O43781 whole entry): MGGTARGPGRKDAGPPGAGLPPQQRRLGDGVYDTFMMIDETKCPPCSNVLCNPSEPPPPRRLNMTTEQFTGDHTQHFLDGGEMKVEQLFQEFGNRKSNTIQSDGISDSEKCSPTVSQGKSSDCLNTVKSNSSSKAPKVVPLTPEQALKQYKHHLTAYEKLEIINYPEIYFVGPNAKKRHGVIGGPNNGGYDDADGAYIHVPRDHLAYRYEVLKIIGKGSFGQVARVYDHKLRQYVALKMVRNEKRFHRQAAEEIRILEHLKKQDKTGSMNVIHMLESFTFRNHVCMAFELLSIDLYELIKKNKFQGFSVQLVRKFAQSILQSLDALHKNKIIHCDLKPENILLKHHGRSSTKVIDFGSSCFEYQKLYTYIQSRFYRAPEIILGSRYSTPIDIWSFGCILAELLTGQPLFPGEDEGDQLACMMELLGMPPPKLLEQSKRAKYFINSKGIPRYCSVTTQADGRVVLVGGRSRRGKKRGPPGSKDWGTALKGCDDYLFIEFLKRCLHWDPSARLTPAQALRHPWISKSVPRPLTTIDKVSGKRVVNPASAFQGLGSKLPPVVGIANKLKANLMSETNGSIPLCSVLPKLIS

[13] = male, Sprague-Dawley, IV 1 mg/kg

For `COc1ccc2sc(-c3cncc(NC(C)=O)c3)nc2c1` [PST-001, N-(5-(5-Methoxybenzo[d]thiazol-2-yl)pyridin-3-yl)acetamide], the “PST-001 in the urine” value [1] was “No PST-001 could be found”, the AUCall ([2]; IV 1 mg/kg) was 158 h ∗ ng/mL and the half-life ([2]; Sprague-Dawley (rat), C57BL/6 (mouse), intravenous, oral, mouse or rat, IV or PO, read-out: t1/2 in plasma) was under 60 min. For the same compound, the Cmax [2, 13] was 647 ng/mL, the Vd [2, 13] was 2.39 L/kg and the clearance [2, 13] was 105 mL/min/kg. For the same compound, the Tmax ([2]; male, Sprague-Dawley, iv, 1 mg/kg, IV 1 mg/kg, read-out: Tmax) was 1.8 min, the half-life ([2]; male, Sprague-Dawley, iv, 1 mg/kg, IV 1 mg/kg, read-out: t½ (converted)) was 43.2 min and the half-life ([2]; male, Sprague-Dawley, iv, 1 mg/kg, IV bolus 1 mg/kg, circulation, read-out: t½ (converted)) was 43 min. For the same compound, the Tmax ([2]; male, Sprague-Dawley, iv, 1 mg/kg, IV bolus 1 mg/kg, read-out: Time of maximum venous concentration (Tmax) (converted)) was 2 min, the Cmax ([3]; C57Bl, IV 1 mg/kg, brain) was 867 ng/mL and the Tmax ([3]; C57Bl, IV 1 mg/kg, brain) was 4.8 min. The half-life ([3]; C57Bl, IV 1 mg/kg, brain) was 9 min, the Cmax ([3]; C57Bl, IV 1 mg/kg, plasma) was 362 ng/mL and the Tmax ([3]; C57Bl, IV 1 mg/kg, plasma) was 4.8 min. For the same compound, the Vd ([3]; C57Bl, IV 1 mg/kg, plasma) was 1.39 L/kg, the clearance ([3]; C57Bl, IV 1 mg/kg, plasma) was 198 mL/min/kg and the half-life ([3]; C57Bl, IV 1 mg/kg, plasma) was 9 min. The AUCall ([3]; IV 1 mg/kg, brain) was 200 h ∗ ng/mL, the AUCall ([3]; IV 1 mg/kg, plasma) was 84 h ∗ ng/mL and the “Time of Cmax” value ([3]; IV bolus, plasma) was 5 min. The “Learning and memory deficits (freezing in context test)” value ([4]; Ts65Dn mice, PST-001 in the food) was “completely eliminated the learning and memory deficits”, the Tolerability ([4]; Ts65Dn mice, chronic oral administration) was “well tolerated” and the “Percentage of freezing behavior” value ([4]; control euploid mice, PST-001 in the food) was “no detectable effects”. The half-life ([5]; read-out: half-life (t½)) was 25 min, the microsomal CLint ([5]; read-out: intrinsic clearance, Cint) was 55 µL/min/mg and the Kp ([6]; male, C57BL/6, mouse, brain, 5 mg/kg, at Tmax after PO administration, read-out: brain level as share of the plasma level) was 0.5. For the same compound, the Tmax ([6]; male, C57BL/6, mouse, brain, 5 mg/kg, mouse, PO 5 mg/kg) was 15 min, the Tmax ([6]; male, C57BL/6, mouse, plasma, 5 mg/kg, PO administration) was 15 min and the Tmax ([6]; male, C57BL/6, mouse, plasma, 5 mg/kg, mouse, PO 5 mg/kg) was 60 min. For the same compound, the Cmax ([6]; male, C57BL/6, mouse, PO 5 mg/kg, brain) was 153 ng/mL, the half-life ([6]; male, C57BL/6, mouse, PO 5 mg/kg, brain, read-out: t½ (converted)) was 16.2 min and the Cmax ([6]; male, C57BL/6, mouse, PO 5 mg/kg, plasma) was 76 ng/mL. For the same compound, the AUCall ([6]; mouse, PO 5 mg/kg, brain) was 189 h ∗ ng/mL and the AUCall ([6]; mouse, PO 5 mg/kg, plasma) was 89 h ∗ ng/mL.

Work on `COc1ccc2sc(-c3cncc(N)c3)nc2c1` [compound 1, 5-(5-Methoxybenzo[d]thiazol-2-yl)pyridin-3-amine] yielded a remaining activity at 1 µM ([7]; 1 μM) of 7%, a remaining activity at 100 µM ([7]; 100 μM) of 0% and a remaining activity at 1 µM ([8]; 1 μM) of 23%. For the same compound, the remaining activity at 100 µM ([8]; 100 μM) was 1%, the remaining activity at 1 µM ([9]; 1 μM) was 110% and the remaining activity at 100 µM ([9]; 100 μM) was 91%. It also gave a remaining activity at 1 µM ([10]; 1 μM) of 11%, a remaining activity at 100 µM ([10]; 100 μM) of 1% and a remaining activity at 1 µM ([11]; 1 μM) of 107%. For the same compound, the remaining activity at 100 µM ([11]; 100 μM) was 25%, the remaining activity at 1 µM ([12]; 1 μM) was 14% and the remaining activity at 100 µM ([12]; 100 μM) was 2%.
